Test results as given in patent US7868013B2, “Cycloalkyl substituted pyrimidinediamine compounds and their uses” (Rigel Pharmaceuticals, Inc., priority 2004, dated 2011).
Like-named read-outs stand apart in the source and are kept apart here.

Tests used:
[1] = system: A549 (lung carcinoma); assay: In vitro antiproliferation assay, A549 cells (TABLE 1 6 point assay; TABLE 2); format: cell-based; details: Homo sapiens
Procedure: (§1) Certain compounds were tested against other cell types for their ability to inhibit proliferation in standard antiproliferation assays.

[2] = system: H1299 (non-small cell lung carcinoma); assay: In vitro antiproliferation assay, H1299 cells (TABLE 1 6 point assay; TABLE 2); format: cell-based; details: Homo sapiens
Procedure: as §1

[3] = A549, 6 point assay, A549 cells, read-out: IC50, A549 cells
[4] = NCI-H1299, 6 point assay, H1299 cells, read-out: IC50, H1299 cells
[5] = A549, A549 cells, 6 point assay, read-out: A549, 6pt (IC50, inhibition of proliferation)
[6] = NCI-H1299, H1299 cells, 6 point assay, read-out: H1299, 6pt (IC50, inhibition of proliferation)

Row | IC50 [1, 3] | IC50 [2, 4] | IC50 [1, 5] | IC50 [2, 6] | SMILES
1 |  |  | 0.1 to 1 µM | 1 to 10 µM | Cc1cc(Nc2ncc(F)c(N[C@H]3CCC[C@H]3C(=O)NCC3CC3)n2)ccc1N1CCN(C)CC1 (racemic) [compound 158, Racemic-cis-N4-[2-(N-cyclopropylmethyl)aminocarbonylcyclopent-1-yl]-5-fluoro-N2-[4-(4-methylpiperazin-1-yl)-3-methylphenyl]-2,4-pyrimidinediamine]
2 |  |  | ≤ 0.1 µM | ≤ 0.1 µM | CN1CCC(Oc2cccc(Nc3ncc(F)c(N[C@H]4[C@@H](C(N)=O)[C@@H]5C=C[C@H]4C5)n3)c2)CC1 [compound 149, (1R,2R,3S,4S)-N4-(3-Aminocarbonylbicyclo[2.2.1]hept-5-en-2-yl)-5-fluoro-N2-[3-(1-methylpiperidin-4-yloxy)phenyl]-2,4-pyrimidinediamine]
3 |  |  | 0.1 to 1 µM | 0.1 to 1 µM | Cc1cc(Nc2ncc(F)c(N[C@H]3[C@@H](C(=O)NC(C)c4ccccc4)[C@@H]4C=C[C@H]3C4)n2)ccc1N1CCN(C)CC1 (stereo partly drawn) [compound 109, (1R,2R,3S,4S)-N4-5-Fluoro-N4-(3-(R)-alpha-methylbenzylaminocarbonylbicyclo[2.2.1]hept-5-en-2-yl)-N2-[3-methyl-4-(4-methylpiperazin-1-yl)phenyl]-2,4-pyrimidinediamine]
4 |  |  | ≤ 0.1 µM | ≤ 0.1 µM | CN(C)CCN1CCc2cc(Nc3ncc(F)c(NC4C5C=CC(C5)C4C(=O)NC4CC4)n3)ccc21 (racemic) [compound 170, Racemic-(2-exo,3-exo)-N4-[3-cyclopropylaminocarbonylbicyclo[2.2.1]hept-5-en-2-yl)-N2-[1-(2-dimethylaminoethyl)-2,3-dihydroindol-5-yl]-5-fluoro-2,4-pyrimidinediamine]
5 |  |  | ≤ 0.1 µM | ≤ 0.1 µM | CN1CCC(Oc2ccc(Nc3ncc(F)c(N[C@H]4[C@@H](C(N)=O)[C@@H]5C=C[C@H]4C5)n3)cc2)CC1 [compound 146, (1R,2R,3S,4S)-N4-(3-Aminocarbonylbicyclo[2.2.1]hept-5-en-2-yl)-5-fluoro-N2-[4-(1-methylpiperidin-4-yloxy)phenyl]-2,4-pyrimidinediamine]
6 |  |  | ≤ 0.1 µM | ≤ 0.1 µM | Cc1cc(Nc2ncc(F)c(NC3C4C=CC(C4)C3C(=O)NC3CCC3)n2)ccc1N1CCN(C)CC1 (racemic) [compound 165, Racemic-(2-exo,3-exo)-N4-[3-(N-cyclobutyl)aminocarbonylbicyclo[2.2.1]hept-5-en-2-yl]-5-fluoro-N2-[3-methyl-4-(4-methylpiperazin-1-yl)phenyl]-2,4-pyrimidinediamine]
7 | ≤ 0.1 µM | ≤ 0.1 µM |  |  | CCS(=O)(=O)N1CCN(c2ccc(Nc3ncc(F)c(NC4C5C=CC(C5)C4C(N)=O)n3)cc2C)CC1 (racemic) [compound 261, Racemic-(2-exo,3-exo)-N4-(3-aminocarbonylbicyclo[2.2.1]hept-5-en-2-yl)-N2-[4-(4-ethylsulfonylpiperazin-1-yl)-3-methylphenyl]-5-fluoro-2,4-pyrimidinediamine]
8 | 0.1 to 1 µM | 1 to 10 µM |  |  | CN1CCN(c2ccc(Nc3ncc(F)c(N[C@H]4CCC[C@H]4C(N)=O)n3)cc2CO)CC1 (racemic) [compound 217, Racemic-cis-N4-(2-aminocarbonylcyclopent-1-yl)-5-fluoro-N2-[3-hydroxymethylene-4-(4-methylpiperazin-1-yl)phenyl]-2,4-pyrimidinediamine]
9 |  |  | ≤ 0.1 µM | ≤ 0.1 µM | CN(C)CCN1CCc2cc(Nc3ncc(F)c(NC4C5CCC(C5)C4C(=O)NC4CC4)n3)ccc21 (racemic) [compound 178, Racemic-(2-exo,3-exo)-N4-[3-cyclopropylaminocarbonylbicyclo[2.2.1]hept-2-yl)-N2-[1-(2-dimethylaminoethyl)-2,3-dihydro-indol-5-yl]-5-fluoro-2,4-pyrimidinediamine]
10 | 0.1 to 1 µM | 0.1 to 1 µM |  |  | Cc1cc(Nc2ncc(F)c(N[C@@H]3C=C[C@H](C(N)=O)C3)n2)ccc1N1CCN(C)CC1 [compound 225, (1S,4R)-cis-N4-(4-Aminocarbonylcyclopent-2-ene-1-yl)-5-fluoro-N2-[3-methyl-4-(4-methylpiperazin-1-yl)phenyl]-2,4-pyrimidinediamine]
11 | 0.1 to 1 µM | 0.1 to 1 µM |  |  | CN1CCN(c2cccc(Nc3ncc(F)c(NC4CCCC4C(N)=O)n3)c2)CC1 (centres unmarked) [compound 195]
12 |  |  | ≤ 0.1 µM | ≤ 0.1 µM | CCCNC(=O)C1C2C=CC(C2)C1Nc1nc(Nc2ccc(N3CCN(C)CC3)c(C)c2)ncc1F (racemic) [compound 168, Racemic-(2-exo,3-exo)-5-fluoro-N2-[4-(4-methylpiperazin-1-yl)-3-methylphenyl]-N4-[3-(N-n-propyl)aminocarbonylbicyclo[2.2.1]hept-5-en-2-yl]-2,4-pyrimidinediamine]
13 | > 10 µM | > 10 µM |  |  | Cc1cc(Nc2ncc(F)c(N[C@@H]3CCC[C@H]3C(=O)O)n2)ccc1N1CCN(C)CC1 [compound 211, (1R,2R)-5-fluoro-N4-(2-hydroxycarbonylcyclopent-1-yl)-N2-[3-methyl-4-(4-methylpiperazino)phenyl]-2,4-pyrimidinediamine]

Further lines, the molecule ahead of its results:

Row | SMILES | IC50 [1, 3] | IC50 [2, 4] | IC50 [1, 5] | IC50 [2, 6]
14 | NC(=O)C1CCCC1Nc1nc(Nc2ccc(N3CCOCC3)cc2)ncc1F (centres unmarked) [compound 198, N4-(2-Carboxamidocyclopentyl)-5-fluoro-N2-(4-morpholinophenyl)-2,4-pyrimidinediamine] | 0.1 to 1 µM | 0.1 to 1 µM |  | 
15 | CN1CCN(c2ccc(Nc3ncc(F)c(NC4CCCC4C(N)=O)n3)cc2C(F)(F)F)CC1 (stereo not drawn) [compound 204, (cis)-N4-(2-Carboxamidocyclopent-1-yl)-5-fluoro-N2-[4-(4-methylpiperazino)-3-trifluoromethylphenyl]-1,4-pyrimidinediamine] | 0.1 to 1 µM | 1 to 10 µM |  | 
16 | Cc1cc(Nc2ncc(F)c(NC3(C(N)=O)CCCC3)n2)ccc1N1CCN(C)CC1 [compound 248, N4-(1-Aminocarbonylcyclopent-1-yl)-5-fluoro-N2-[3-methyl-4-(4-methylpiperazin-1-yl)phenyl]-2,4-pyrimidinediamine] | > 10 µM | > 10 µM |  | 
17 | COC(=O)[C@@H]1CCC[C@@H]1Nc1nc(Nc2ccc(N3CCN(C)CC3)c(C)c2)ncc1F (racemic) [compound 218, Racemic-cis-5-fluoro-N2-[3-methyl-4-(4-methylpiperazin-1-yl)phenyl]-N4-(2-methoxycarbonylcyclopent-1-yl)-2,4-pyrimidinediamine] | 1 to 10 µM | 1 to 10 µM |  | 
18 | CNC(=O)C1C2C=CC(C2)C1Nc1nc(Nc2ccc3c(c2)CCN3CCN(C)C)ncc1F (racemic) [compound 177, Racemic-(2-exo,3-exo)-N2-[1-(2-dimethylaminoethyl)-2,3-dihydroindol-5-yl]-5-fluoro-N4-[3-N-methylaminocarbonylbicyclo[2.2.1]hept-5-ene-2-yl]-2,4-pyrimidinediamine] |  |  | ≤ 0.1 µM | 0.1 to 1 µM
19 | Cc1cc(Nc2ncc(F)c(NC3C4C=CC(C4)C3C(N)=O)n2)ccc1N1CCSCC1 (racemic) [compound 251, Racemic-(2-exo,3-exo)-N4-(3-aminocarbonylbicyclo[2.2.1]hept-5-en-2-yl)-5-fluoro-N2-[(3-methyl-1-thiomorpholin-4-yl)phenyl]-2,4-pyrimidinediamine] | ≤ 0.1 µM | ≤ 0.1 µM |  | 
20 | CN1CCN(Cc2cc3cc(Nc4ncc(F)c(N[C@H]5CCC[C@H]5C(N)=O)n4)ccc3o2)CC1 (racemic) [compound 131, Racemic-cis-N4-(2-aminocarbonylcyclopent-1-yl)-5-fluoro-N2-[2-(4-methylpiperazin-1-ylmethylene)benzofuran-5-yl]-2,4-pyrimidinediamine] |  |  | 1 to 10 µM | 1 to 10 µM
21 | COC(=O)CN1CCc2ccc(Nc3ncc(F)c(N[C@H]4CCC[C@H]4C(N)=O)n3)cc2C1 (racemic) [compound 132, Racemic-cis-N4-(2-aminocarbonylcyclopent-1-yl)-5-fluoro-N2-[2-(methoxycarbonylmethylene)-1,2,3,4-tetrahydroisoquin-7-yl]-2,4-pyrimidinediamine] |  |  | 0.1 to 1 µM | 0.1 to 1 µM
22 | Cc1cc(Nc2ncc(F)c(NC3(C(=O)NC4CC4)CCCC3)n2)ccc1N1CCN(C)CC1 [compound 247, N4-(1-Cyclopropylaminocarbonylcyclopent-1-yl)-5-fluoro-N2-[3-methyl-4-(4-methylpiperazin-1-yl)phenyl]-2,4-pyrimidinediamine] | > 10 µM | > 10 µM |  | 
23 | Cc1cc(Nc2ncc(F)c(N[C@@H]3[C@H]4CC[C@H](C4)[C@@H]3C(N)=O)n2)ccc1N1CCN(C)CC1 (racemic) [compound 240, Racemic-(2-exo,3-exo)-N4-(3-aminocarbonylbicyclo[2.2.1]hept-2-yl)-5-fluoro-N2-[3-methyl-4-(4-methylpiperazin-1-yl)phenyl]-2,4-pyrimidinediamine] | ≤ 0.1 µM | ≤ 0.1 µM |  | 
24 | Cc1cc(Nc2ncc(F)c(NC3C4C=CC(C4)C3C(=O)NC3CC3)n2)ccc1N1CCN(C)CC1 (racemic) [compound 164, Racemic-(2-exo,3-exo)-N4-[3-(N-cyclopropyl)aminocarbonylbicyclo[2.2.1]hept-5-en-2-yl)-5-fluoro-N2-[3-methyl-4-(4-methylpiperazin-1-yl)phenyl]-2,4-pyrimidinediamine] |  |  | ≤ 0.1 µM | ≤ 0.1 µM
25 | Cc1cc(Nc2ncc(F)c(NC3C4C=CC(C4)C3C(N)=O)n2)ccc1N1CC2CC1CC2C (racemic) [Compound 285, Racemic-(2-exo,3-exo)-N4-(3-aminocarbonylbicyclo[2.2.1]hept-5-en-2-yl)-5-fluoro-N2-[3-methyl-4-(5-methyl-(1S,4S)-2,5-diazabicyclo[2.2.1]heptan-2-yl)]phenyl-2,4-pyrimidinediamine] | ≤ 0.1 µM | ≤ 0.1 µM |  | 
